Measured values reported in patent US9434687B2, “Detection of synthetic cannabinoids” (priority 2011, dated 2016).
Where two headings read alike, the source gives them in different places.

What was measured:
Assay type in all cases: binding, sheep
[1] = tested on: IgG fraction of antiserum raised to Immunogen I; conditions: Antibody to Immunogen I; cross-reactants at 100 ng/ml; 1000 ng/ml; standard JWH-018
Description: (§1) An aqueous solution of each immunogen was formulated with Freund's Complete Adjuvant (FCA) to form an emulsion consisting of 2 mg/ml*immunogen in 50% (v/v) FCA. Three sheep were immunised with this emulsion (1° immunisation), 0.25 ml being intramuscularly injected at each of four sites in the flank of each animal. Subsequent immunizations (boosts) contained 1 mg/ml*immunogen. All boosts were emulsified in 50% (v/v) Freund's Incomplete Adjuvant (FIA) and were administered in the same manner as the 1° immunisation, at monthly intervals. Blood sampling took place 7 to 14 days after each boost. *The general procedure for immunogen administration is outlined above, however, it was necessary to deviate from this protocol in some cases, due to reduced immunogen concentrations (Immunogens II, IV, VII and VIII) and/or amount available (Immunogen VIII). Any deviations from the protocol described are outlined in Table 5 below and highlighted in bold.
(§2) The wells of an enhanced binding 96 well polystyrene microtiter plate were coated with IgG fraction of antiserum raised to Immunogen I or II, diluted in 10 mM Tris, pH8.5 (125 μl/well). The appropriate antibody coating dilution was determined using standard ELISA checkerboard techniques. The plate was incubated overnight at 4° C., washed 4 times over 10 minutes with Tris buffered saline containing Tween 20 (TBST) and tapped dry. Standard solutions (JWH-018 for Immunogens I and II) were applied at 0, 0.625, 1.25, 2.5, 5, 10, 20 and 40 ng/ml and 50 μl of each was added to the appropriate wells. 75 μl of conjugate (appropriate hapten-HRP) diluted in Tris buffer (pH 7.2) containing EDTA, D-mannitol, sucrose, thimerosal and BSA, was added to each of the wells. The appropriate dilution of conjugate was also determined using standard ELISA checkerboard techniques. The plate was incubated at 25° C. for 1 hour. Excess unbound conjugate was removed by washing 6 times over a 10 minute period with TBST. 125 μl of tetramethylbenzidine (TMB) substrate solution was added to each well of the plate that was then incubated for 20 minutes in the dark at room temperature. The reaction was terminated by addition of 125 μl 0.2M H2SO4 to each well. The absorbance was then measured at 450 nm using a microtiter plate reader. The data are inputted to a computer program called ‘KC Junior’. It is a 4 parameter fit curve and allow the calculation of concentrations between the standard runs. This program is used to calculate the IC50s by dividing the 0 ng/ml OD value by 2 and obtaining the concentration value from the curve for this OD.
In a similar manner to that described above, the wells of a 96-well microtiter plate were coated with the IgG fraction of the antiserum raised to Immunogens I or II. Standard solutions (JWH-018 for Immunogen I and II) were applied at 0, 0.625, 1.25, 2.5, 5, 10, 20 and 40 ng/ml and conjugate was employed as detection reagent.
(§3) The data set out in Tables 7-10 are generated using antibodies raised against the indicated Immunogens in a competitive binding assay with the indicated tracers, using the indicated standards
(§4) In order to determine the specificity of the competitive ELISAs, standard solutions of a range of structurally similar synthetic cannabinoids and their metabolites were prepared in TBST.
(§5) Using the calibration curves generated and employing a single level of cross reactants, these were used to determine the cross-reactivity of each immunoassay with these substances. These are the standards used for the IC50 and cross-reactivity data generation: […]

[2] = tested on: IgG fraction of antiserum raised to Immunogen II; assay: Competitive ELISA, antibody RS1833B12 to Immunogen II, tracer ESC4555 (Example 36); conditions: Antibody to Immunogen II; cross-reactants at 100 ng/ml; 1000 ng/ml; standard JWH-018
Description: as §1
as §2, with “The” for “The wells of an enhanced binding 96 well polystyrene microtiter plate were coated with IgG fraction of antiserum raised to Immunogen I or II, diluted in 10 mM Tris, pH8.5 (125 μl/well). The”, “Standard solutions (JWH-018 for Immunogens I and II) were applied at 0, 0.625, 1.25, 2.5, 5, 10, 20 and 40 ng/ml and 50 μl of each was added to the appropriate wells.” left out, “runs.” for “runs. This program is used to calculate the IC50s by dividing the 0 ng/ml OD value by 2 and obtaining the concentration value from the curve for this OD.”
In a similar manner to that described above, the wells of a 96-well microtiter plate were coated with the IgG fraction of the antiserum raised to Immunogens I or II.
as §3, §5

[3] = tested on: IgG fraction of antiserum raised to Immunogen IV; conditions: Antibody to Immunogen IV; cross-reactants at 100 ng/ml; 1000 ng/ml; standard JWH-018
Description: as §1, §2
(§6) In a similar manner to that described above, the wells of a 96-well microtiter plate were coated with the IgG fraction of the antiserum raised to Immunogens IV, VII or VIII. Standard solutions (JWH-018 for Immunogens IV and VIII, JWH-015 for Immunogen VII) were prepared in TBST at 0, 1.25, 2.5, 5, 10, 20, 40 and 80 ng/ml and conjugate was employed as detection reagent.
as §3, §4, §5

[4] = tested on: IgG fraction of antiserum raised to Immunogen VIII; conditions: Antibody to Immunogen VIII; cross-reactants at 100 ng/ml; 1000 ng/ml; standard JWH-018
Description: as §1, §2, §6, §3, §4, §5

[5] = tested on: IgG fraction of antiserum raised to Immunogen VII
Description: as §1, §2, §6, §3, §4, §5

[6] = Antibody to Immunogen VII, cross-reactants at 100 ng/ml, 1000 ng/ml, standard JWH-015

## CCCC(C)n1cc(C(=O)c2cccc3ccccc23)c2ccccc21 (single isomer, unassigned) [JWH-018 N-(1-methylbutyl) isomer]
[1]
  % B/B0: 12.42%
[2]
  % B/B0: 51.92%
[3]
  % B/B0: 73.49%
[4]
  % B/B0: 63.22%
[5]; [6]
  % B/B0: 67.71%

## CCC(C)Cn1cc(C(=O)c2cccc3ccccc23)c2ccccc21 (single isomer, unassigned) [JWH-018 N-(2-methylbutyl) isomer]
[1]
  % B/B0: 3.61%
[2]
  % B/B0: 28.60%
[3]
  % B/B0: 29.88%
[4]
  % B/B0: 85.16%
[5]; [6]
  % B/B0: 58.84%

## CCCCn1cc(C(=O)c2cccc3ccccc23)c2c(O)cccc21 [4-OH JWH-073, JWH-073 4-hydroxyindole metabolite]
[1]
  % B/B0: 39.50%
[2]
  % B/B0: 40.14%
[3]
  % B/B0: 28.69%
[4]
  % B/B0: 26.23%
[5]; [6]
  % B/B0: 82.82%

## CCCCn1cc(C(=O)c2cccc3ccccc23)c2cc(O)ccc21 [5-OH JWH-073, JWH-073 5-hydroxyindole metabolite]
[1]
  % B/B0: 7.34%
[2]
  % B/B0: 20.73%
[3]
  % B/B0: 84.06%
[4]
  % B/B0: 90.70%
[5]; [6]
  % B/B0: 75.11%

## CCCCn1cc(C(=O)c2cccc3ccccc23)c2ccc(O)cc21 [6-OH JWH-073, JWH-073 6-hydroxyindole metabolite]
[1]
  % B/B0: 5.93%
[2]
  % B/B0: 28.03%
[3]
  % B/B0: 74.89%
[4]
  % B/B0: 93.52%
[5]; [6]
  % B/B0: 61.83%

## CCCCCn1cc(C(=O)c2cccc3ccccc23)c2cccc(O)c21 [7-OH JWH-018, JWH-018 7-hydroxyindole metabolite]
[1]
  % B/B0: 6.72%
[2]
  % B/B0: 34.79%
[3]
  % B/B0: 93.31%
[4]
  % B/B0: 94.46%
[5]; [6]
  % B/B0: 68.53%

## CCCCn1cc(C(=O)c2cccc3ccccc23)c2cccc(O)c21 [7-OH JWH-073, JWH-073 7-hydroxyindole metabolite]
[1]
  % B/B0: 5.59%
[2]
  % B/B0: 46.05%
[3]
  % B/B0: 96.95%
[4]
  % B/B0: 94.04%
[5]; [6]
  % B/B0: 61.78%

## CS(=O)(=O)O.Cc1c(C(=O)c2cccc3ccccc23)c2cccc3c2n1[C@H](CN1CCOCC1)CO3 [(+)WIN 55212-2]
[1]
  % B/B0: 17.00%
[2]
  % B/B0: 83.87%
[3]
  % B/B0: 92.76%
[4]
  % B/B0: 107.12%
[5]; [6]
  % B/B0: 24.08%

## O=C(c1cccc(I)c1)c1cn(CCCCCF)c2ccccc12 [AM-694 3-iodo isomer]
[1]
  % B/B0: 31.37%
[2]
  % B/B0: 48.58%
[3]
  % B/B0: 37.20%
[4]
  % B/B0: 12.71%
[5]; [6]
  % B/B0: 89.49%

## O=C(c1ccccc1I)c1cn(CCCCCF)c2ccccc12 [AM-694]
[1]
  % B/B0: 12.17%
[2]
  % B/B0: 36.18%
[3]
  % B/B0: 11.30%
[4]
  % B/B0: 11.92%
[5]; [6]
  % B/B0: 75.66%

## CN1CCCCC1Cn1cc(C(=O)c2cccc3ccccc23)c2ccccc21 (centres unmarked) [AM-1220]
[1]
  % B/B0: 4.45%
[2]
  % B/B0: 77.46%
[3]
  % B/B0: 86.93%
[4]
  % B/B0: 106.65%
[5]; [6]
  % B/B0: 49.71%

## O=C(c1cccc2ccccc12)c1cn(CCCC(O)CF)c2ccccc12 (centres unmarked) [AM-2201 N-(4-hydroxypentyl) metabolite]
[1]
  % B/B0: 3.80%
[2]
  % B/B0: 46.55%
[3]
  % B/B0: 43.62%
[4]
  % B/B0: 36.41%
[5]; [6]
  % B/B0: 52.75%

## CN1CCCCC1Cn1cc(C(=O)c2ccccc2I)c2ccccc21 (centres unmarked) [AM-2233]
[1]
  % B/B0: 16.97%
[2]
  % B/B0: 86.43%
[3]
  % B/B0: 92.10%
[4]
  % B/B0: 91.25%
[5]; [6]
  % B/B0: 72.46%

## CC(C)CCn1cc(C(=O)c2cccc3ccccc23)c2ccccc21 [JWH 018 N-(3-methylbutyl) isomer]
[1]
  % B/B0: 3.16%
[2]
  % B/B0: 30.38%
[3]
  % B/B0: 12.75%
[4]
  % B/B0: 53.29%
[5]; [6]
  % B/B0: 48.81%

## CCCCCCn1cc(C(=O)c2cccc3ccccc23)c2cc(O)ccc21 [JWH 019 5-hydroxyindole metabolite]
[1]
  % B/B0: 19.81%
[2]
  % B/B0: 17.34%
[3]
  % B/B0: 93.84%
[4]
  % B/B0: 101.57%
[5]; [6]
  % B/B0: 87.58%

## CCCCn1cc(C(=O)c2c(C)ccc3ccccc23)c2ccccc21 [JWH 073 2-methylnaphthyl analog]
[1]
  % B/B0: 21.84%
[2]
  % B/B0: 43.34%
[3]
  % B/B0: 34.47%
[4]
  % B/B0: 78.79%
[5]; [6]
  % B/B0: 76.74%

## CCCCCn1cc(C(=O)c2c(C)ccc3ccccc23)c2ccccc21 [JWH 122 2-methylnaphthyl isomer]
[1]
  % B/B0: 33.35%
[2]
  % B/B0: 27.14%
[3]
  % B/B0: 26.13%
[4]
  % B/B0: 61.74%
[5]; [6]
  % B/B0: 85.37%

## CCCCCn1cc(C(=O)c2cccc3cc(C)ccc23)c2ccccc21 [JWH 122 6-methylnaphthyl isomer]
[1]
  % B/B0: 12.55%
[2]
  % B/B0: 39.17%
[3]
  % B/B0: 8.12%
[4]
  % B/B0: 20.46%
[5]; [6]
  % B/B0: 86.66%

## CCCCCn1cc(C(=O)c2cccc3ccc(C)cc23)c2ccccc21 [JWH 122 7-methylnaphthyl isomer]
[1]
  % B/B0: 36.46%
[2]
  % B/B0: 38.28%
[3]
  % B/B0: 13.48%
[4]
  % B/B0: 38.48%
[5]; [6]
  % B/B0: 92.44%

## CCCCCn1c(C)c(C(=O)c2cccc3ccccc23)c2ccccc21 [JWH-007]
[1]
  % B/B0: 32.96%
[2]
  % B/B0: 66.06%
[3]
  % B/B0: 60.63%
[4]
  % B/B0: 61.76%
[5]; [6]
  % B/B0: 27.77%

## CCCn1c(C)c(C(=O)c2cccc3ccccc23)c2ccccc21 [JWH-015]
[1]
  % B/B0: 14.67%
[2]
  % B/B0: 65.67%
[3]
  % B/B0: 93.20%
[4]
  % B/B0: 92.27%
[5]; [6]
  % B/B0: 17.84%
[5]; JWH-015 1.25 ng/ml
  % B/B0: 75%
[5]; JWH-015 2.5 ng/ml
  % B/B0: 62%
[5]; JWH-015 5 ng/ml
  % B/B0: 54%
[5]; JWH-015 10 ng/ml
  % B/B0: 43%
[5]; JWH-015 20 ng/ml
  % B/B0: 34%
[5]; JWH-015 40 ng/ml
  % B/B0: 26%
[5]; JWH-015 80 ng/ml
  % B/B0: 20%
[5]; Table 9 standard curve, standard concentration which produces 50% B/B0
  IC50: 5.910 ng/mL
